Test results reported in ChEMBL document CHEMBL1126661, “Oxidation chemistry of the endogenous central nervous system alkaloid salsolinol-1-carboxylic acid” (J Med Chem, 1993).

Test system: Mus musculus
Experiment: Compound was evaluated for its lethal dose (LD50) by dissolving in 5 microL of isotonic saline and injected intracranially in mice which resulted in the death of 50% of the treated animals within 1 hour
Format: ADME, organism-based
Conditions: in vivo, other

Structure (SMILES): CC1=NCCc2c1cc(O)c(O)c2O
- LD50: 38.9 µg

Structure (SMILES): CC1=NCCc2cc(O)c(O)cc21
- LD50: 31.1 µg
